Key:
CK2α1 [1] = target: T1, CK2α1 (Homo sapiens, UniProt P68400); experiment: Thermal shift assay with Western blotting in astrocyte extracts; type: binding; conditions: extracts of iPSC-derived astrocytes
T1 construct: endogenous in cells
Experimental: Thermal shift assay and TPP. […] Protein concentration was determined by BCA assay (Bio-Rad), and lysates were diluted to 2 mg/mL. […] Reactions were incubated at rt for 30 min, after which each treated extract was divided into 10 aliquots of 95 μl in PCR strip tubes and stored on ice. […] A small aliquot (5 μl) of supernatant was saved for Western blotting, and the rest was snap frozen at −80 C and submitted for LC-MS/MS.

[2] = system: microglial phagocytosis of pHrodo E. coli beads; experiment: Microglial phagocytosis assay; type: cell-based, human; conditions: 20 μM, 5 h treatment
Experimental: Phagocytosis assay. […] Then, 0.5 μl of pH rodo E. coli-FITC beads (Thermo Fisher, P35366) was added per well with gentle mixing and the cells were incubated for another 4 hours. pHrodo beads only fluoresce when they are internalized in cells. Cells were then collected by scraping, washed with FACS buffer, and counter-stained with Zombie Violet to assess viability. Live cells were analyzed on the FACS Canto instrument for geometric mean fluorescence on the FITC channel. The background FITC fluorescence value (pHrodo beads only) was subtracted from each mean, and fold-change was computed across experimental groups.

CK2α1 [3] = experiment: CK2 levels in IL1-β-stimulated human primary astrocytes (Western blot); type: cell-based; conditions: after 5 hours
Experimental: Western blotting. […] Cells were dissociated with 1:1 Accutase:papain for 3 min at rt, pelleted for 5 min at 800 g, and washed twice with cold DPBS. Pellets were lysed with RIPA buffer (Sigma R0278) supplemented with Halt protease inhibitor cocktail (Thermo Fisher 78445) and clarified by centrifugation (16,000 g, 10 min, 4° C.). Protein concentration was determined by BCA assay (Thermo Fisher). Proteins were denatured in 1×LDS Buffer and 2.5% beta-mercaptoethanol (X) for 10 min at 70° C., separated on Bolt 4-12% Bis-Tris Plus polyacrylamide gels (Thermo Fisher), transferred to PVDF membranes using the iBlot 2 Dry Blotting System, and blocked with 0.1% casein-PBS (Bio-Rad) for 1 h at room temperature. The blots were incubated with primary antibodies overnight at 4° C. in PBS containing 0.1% casein and 0.2% Tween-20. Antibodies used: rabbit anti-CK2a1 (Bethyl #, 1:5000), rabbit anti-CK2a2 (Bethyl #, 1:5000), mouse anti-GAPDH (Fitzgerald #10-1501, 1:20,000), mouse anti-NF-KB (CST #6956S, 1:1000), pNF-KB S529 (TFS #14-9864-82, 1:100), LC3B (CST 2775, 1:1000), ACO2 (CST 6922, 1:1000), rabbit HMGB1 (Novus #NB1002322, 1:1000), mouse anti-IκBα (CST #4814S, 1:1000), mouse anti-IκBa pS32 (SC #8404, 1:500), HA-tag (Bethyl #A190-108A, 1:20000). […] The blots were imaged using the Odyssey CLx imaging system and blots were analyzed on the ImageStudio software (LI-COR).

NF-κB pS529 = experiment: Immunofluorescence of NF-κB and NF-κB pS529 in activated astrocytes; type: cell-based, human; conditions: after 1 h
Experimental: Immunotluorescence. […] After treatment, cells were fixed with 4% paraformaldehyde solution for 20 min at room temperature and washed 3× with DPBS for 10 min each. The cells were permeabilized using 5% horse serum and 10% Triton X in DPBS for 15 min at room temperature and blocked with 5% horse serum in PBS for 30 min at room temperature. Cells were incubated with primary antibodies in blocking buffer either overnight at 4° C. or for 2 hours at room temperature. After incubation, cells were washed 3× with PBS, blocked using 5% horse serum in PBS for 30 min at room temperature, and incubated with Cy3 red-labeled or AF488 green-labeled secondary antibodies diluted in blocking buffer for 1 hour at room temperature. The cells were washed once with PBS for 10 min, then counter-stained with DAPI. The cells were washed 3× with PBS and mounted with glass coverslips and Immu-Mount solution. Images were obtained with the Zeiss fluorescent microscope. The following primary antibodies were used: rabbit anti-NF-κB (1:400; CST), mouse anti-phospho NF-κB S529 (20 ug/ml; Thermo Fisher), rabbit anti-CK2A1 (1:500; Bethyl), mouse anti-IKb alpha (1:400; CST), mouse anti-phospho IKb alpha (1:50; Santa Cruz), rabbit anti-phospho CK2A1 (1:25; Thermo Fisher), rabbit anti-phospho Cdc37 (1:50; Novus), mouse anti-phospho NF-κB S529 (1:25; R&D), rabbit anti-Cdc37 (1:100; CST), mouse anti-SQSTM1 (1:50; Santa Cruz), anti rabbit-phospho NF-κB S536 (1:1600; CST), anti rabbit-Akt (pan) (1:400; CST), anti mouse-phospho Akt S473 (1:500; Sigma).
To investigate the potential effects of CK2 activity on NF-κB, NF-κB and NF-κB pS529 were measured by immunofluorescence in activated astrocytes. […] At this timepoint, NF-κB pS529 levels were similar across all treatments, possibly as a result of slower turnover by pNF-κB species.

T1 sequence (P68400 whole entry): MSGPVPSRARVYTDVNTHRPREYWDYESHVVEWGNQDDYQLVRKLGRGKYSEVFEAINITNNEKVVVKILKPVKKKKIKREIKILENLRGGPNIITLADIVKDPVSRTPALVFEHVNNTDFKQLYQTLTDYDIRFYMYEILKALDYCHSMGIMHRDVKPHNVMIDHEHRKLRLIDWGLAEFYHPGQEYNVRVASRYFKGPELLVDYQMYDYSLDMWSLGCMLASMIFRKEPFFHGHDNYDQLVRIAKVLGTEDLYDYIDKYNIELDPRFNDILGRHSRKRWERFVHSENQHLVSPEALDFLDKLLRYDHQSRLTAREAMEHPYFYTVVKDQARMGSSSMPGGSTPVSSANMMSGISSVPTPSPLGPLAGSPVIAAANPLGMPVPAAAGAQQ

With COc1cc(-c2cc(=O)c3c(O)cc(O)cc3o2)ccc1O [CHR, chrysoeriol] the “binding / thermal stabilization of CK2a” value (CK2α1 [1]) was “dose-dependently stabilized”, the “binding / thermal stabilization of CK2a” value (CK2α1 [1]; listed as chrysoeriol) was “bind CK2a” and the “microglial phagocytosis of pHrodo E. coli beads” value [2] was “blocked”. For the same compound, the CK2α1 levels (CK2α1 [3]) was “reduced to baseline” and the “IL1-β-induced increase of NF-κB nuclear intensity” value (NF-κB pS529) was “blocked”.
